# Patent US6670400B1, “Phenoxyethylamine derivatives having high affinity for the 5-HT1A receptor, preparation thereof, use thereof as drugs, and pharmaceutical compositions containing said derivatives” (Societe de Conseils de Recherches et D'Applications …, priority 1995, dated 2003)
# pKi: −log10 of the molar value. Where a name gives a salt, the structure may show the parent alone.
# Key:
# 5-HT1A receptor = molecular target: T1, 5-HT1A receptor (Rattus norvegicus, UniProt P19327); test: Affinity for the 5-HT1A receptor: inhibition of [3H]8-OH-DPAT binding to rat cerebral cortex membranes; conditions: [3H]8-OH-DPAT 1 nM, 30 min at 25 deg. C.
# T1 construct: Rat cerebral cortex membranes (10 mg by weight, moistened, per ml) are incubated with [3H]8-OH-DPAT (1 nM); from tissue; host or cells: rat cerebral cortex membranes (male Sprague Dawley rats)
# T1 sequence (P19327 1-422): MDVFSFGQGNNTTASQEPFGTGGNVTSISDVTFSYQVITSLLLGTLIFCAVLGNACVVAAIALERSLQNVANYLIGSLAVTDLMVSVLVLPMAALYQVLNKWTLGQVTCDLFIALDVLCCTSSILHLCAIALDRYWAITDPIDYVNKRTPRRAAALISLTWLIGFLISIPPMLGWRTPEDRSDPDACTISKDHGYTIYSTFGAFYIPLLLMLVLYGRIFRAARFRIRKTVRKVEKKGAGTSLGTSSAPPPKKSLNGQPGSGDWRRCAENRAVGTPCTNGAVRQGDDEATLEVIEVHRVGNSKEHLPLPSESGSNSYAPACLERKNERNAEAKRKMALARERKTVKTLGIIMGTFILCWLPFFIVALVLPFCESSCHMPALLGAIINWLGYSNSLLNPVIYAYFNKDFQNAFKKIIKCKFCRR
# Experimental: The affinity of the compounds for the 5-HT1A serotonergic receptors is determined by measuring the inhibition of [3H]8-hydroxy-2 (di-n-propylamino) tetralin([3H]8-OH-DPAT) connected with the cerebral cortex of the rat according to the method of Perutka et al. (J. Neurochem., 47,529 [1986]).
# Cerebral cortices of male Sprague Dawley rats are homogenized in 50 mM Tris-HCl, pH—7.4, and centrifuged at 40,000 g for 10 min. at 4 degrees C. Pellets are put into suspension in the same buffer and incubated for 10 min. at 37 degrees C. and the homogenates are again centrifuged at 40,000 g for 10 min. at 4 degrees C.
# Competitive inhibition tests of the bond of [3H]8-OH-DAPT are performed three times with unmarked competitors with concentrations ranging between 100 pM and 100 μM. Rat cerebral cortex membranes (10 mg by weight, moistened, per ml) are incubated with [3H]8-OH-DPAT (1 nM) for 30 min. at 25 deg. C. in Tris-HCl 50 mM, pH 7.4 comprising 4 mM of CaCl2, 10 μM of pargylin and 0.1% ascorbic acid.
# The bonded [3H]8-OH-DPAT is separated from the free [3H]8-OH-DPAT by immediate filtration by means of Whatman GF/B fiberglass filters using a Brandel cell recoverer. The filters [filtrates?] are washed three times with the same buffer at 0-4 deg. C. and their radioactivity is determined by means of a liquid scintillation spectrometer.
# The specific bond is obtained by subtracting the given bond in the presence of 1 μM of 8-OH-DPAT from the total bond. The bond characteristics are analyzed by interactive analysis of the nonlinear regression by computer using the Ligand program (Munson and Rodbard, Anal. Biochem., 107, 220 [1980]).
# [1] = test system: vomiting induced by cis-platinum; test: Anti-emetic activity: inhibition of vomiting induced by cis-platinum in ferrets; format: in vivo, ferret; conditions: 30 minutes before cis-platinum 30 mg/kg i.v., ferrets observed six hours
# Experimental: Inhibition induced by cis-platinum is evaluated in ferrets using a modification of the protocol described by Barnes et al. (J. M. Barnes, N. M. Barnes, B. Costall, R. J. Naylor, F. D. Tattersall, Neuropharmacology, 27[8], 783 [1988]). Thus, albino ferrets or European polecats of both sexes weighing between 0.5 kg and 1.5 kg are put under anesthesia with pentobarbitone (30-40 mg/kg i.p.) and a polyethylene injection tube is inserted into the left jugular vein. Two days later, the compounds being tested are administered i.v. 30 minutes before cis-platinum (30 mg/kg i.v.). The animals are observed for six hours and the number of vomitings is recorded. A control group is included for each experiment.
# gastric acid secretion = test: Gastric anti-secretion activity, pylorus-ligated rat (Shay method); format: in vivo; conditions: intraduodenal, male Sprague Dawley rats, pylorus ligature, 4 hours
# Experimental: The gastric anti-secretion activity of the compounds of the invention was tested according to the method described by Shay et al. (H. Shay, D. C. Sun, M. Gruenstein, Gastroenterology, 26, 906 [1954]). Thus, male Sprague Dawley rats weighing around 200 g with free access to water are made to fast 24 hours before the experiments. Ligatures are made on the pylora under ether anesthesia and the medications to be tested are simultaneously administered either by the intraperitoneal route (i.p.) or by intraduodenal route (i.d.). The abdomen is closed again and the animals are sacrificed after four hours. The gastric secretion is recovered and centrifuged at 1,500 g for 15 minutes; the volume of the supernatant is measured and the acidity is determined by automatic titration of 0.05 N sodium hydroxide. A control group is included for each experiment.
# The dose necessery for 50% inhibition (ED50) of the acid secretion (X concentration of hydrochloric acid by volume) is calculated using the method described by Litchfield and Wilcoxon (J. T. Litchfield, F. A. Wilcoxon, J. Pharmacol., 96, 99 [1949]). The results obtained for compounds pounds representative of the invention are given in Table 3 and compared with the clinically used reference compounds: Pirenzepine (anti-cholinergic), Ranitidine (antagonist of histaminergic H2 receptors) and Omeprazole (proton pump inhibitor).
# intestinal transit = test: Effect on intestinal transit (charcoal meal) in rats; format: in vivo, rat; conditions: 30 minutes before charcoal, sacrificed after 15 minutes
# Experimental: A compound of the invention was tested to determine its effect on the intestinal transit according to the method described by A. F. Green (Br. J. Pharmacol., 14, 26-34 [1959]). To male Sprague Dawley rats weighing approximately 200 g before being made to fast, there was administered (p.o.) a meal comprised of charcoal (10 g) and gum arabic (2.5 g) dissolved in 100 ml of distilled water. The animals were sacrificed after 15 minutes and the charcoal transit time was measured.
# The product to be tested was administered (s.c.) 30 minutes before the administration of the charcoal.
# gastric emptying = test: Effect on gastric emptying (phenol red meal) in rats; format: in vivo, rat; conditions: sacrificed 15 minutes after phenol red meal
# Experimental: A compound of the invention was tested for its effect on gastric emptying according to the method described by C. Scarpignato et al. (Arch. Int. Pharmacodyn., 246, 286-294 [1980]). Thus, 1.5 ml of a 1.5% methyl cellulose solution comprising phenol red (0.5 mg/ml) was administered orally to Sprague Dawley rats weighing approximately 200 g and previously subjected to fasting. The animals were sacrificed after 15 minutes and the pylora and the esophagi were tied off. The contents of the stomachs were collected in a teflon beaker containing a solution of soda (100 ml at 0.1 N) and the mixture was homogenized. The proteins were precipitated by addition of 0.5 ml of a 20% aqueous solution of trifluoroacetic acid to a 5 ml portion of homogenate. After centrifuging, the part of the solution rising to the top was separated and added to 4.5 ml of an aqueous solution of soda at 0.5 N and the phenol red content was determined by using a spectrophotometer at a wavelength of 560 nm.
# The compound to be tested was administered (s.c.) 15 minutes […] the administration of phenol red.
melting point [°C],pKi (5-HT1A receptor),Structure (SMILES),also measured
68 to 70,,COc1cccc(C(=O)NCCCCNCCOc2ccccc2OC)c1 (as salt: fumarate) [compound 14],
130 to 132,,COc1ccccc1OCCNCCCCNC(=O)CC(C)(C)C (as salt: fumarate) [compound 33],
134 to 136,,"COc1ccccc1OCCNCCCCNC(=O)C1CCCCC1 (as salt: fumarate) [compound 34, N[4-{2-(2-methoxyphenoxy)ethyl}aminobutyl]cyclohexylamide]",
120 to 122,,COc1ccccc1OCCNCCCCNC(=O)C1(C)CCCCC1 (as salt: fumarate) [compound 45],
125 to 126,,"COc1ccccc1OCCNCCCCNC(=O)C1CCCCCC1 (as salt: fumarate) [compound 46, N[4-{2-(2-methoxyphenoxy)ethyl}aminobutyl]cycloheptylamide]",
130 to 131,,"COc1ccccc1OCCNCCCCNC(=O)C1CC2CCC1C2 (stereo not drawn) (as salt: fumarate) [compound 50, N[4-{2-(2-methoxyphenoxy)ethyl}aminobutyl]2-bicyclo[2,2,1]heptylamide]",
118 to 119,,COc1ccccc1OCCNCCCCNC(=O)CC1CCCC1 (as salt: fumarate) [compound 59],
131.5 to 133,,CCOc1ccccc1OCCNCCCCNC(=O)C(C)(C)C (as salt: fumarate) [compound 64],
152 to 154,,COc1ccccc1OCCNCCCCNC(=O)c1ccccn1 (as salt: salt) [compound 3],
119 to 120.5,,COc1ccccc1OCCNCCCCNC(=O)c1ccc(F)cc1 (as salt: salt) [compound 23],
121 to 121.5,,COc1ccccc1OCCNCCCCNC(=O)c1cccc(I)c1 (as salt: salt) [compound 30],
,9.70,"COc1ccccc1OCCNCCCCNC(=O)c1ccccc1 [Compound No. 1, N-[4-{2-(2-Methoxyphenoxy)ethyl}aminobutyl]benzamide]",Percent Inhibition (vomiting) ([1]; 1.0 mg/kg iv): 40%; ED50 (dose necessary for 50% inhibition of the acid secretion) (gastric acid secretion): 3.7 mg/kg i.d.
,10.00,"COc1ccccc1OCCNCCCCNC(=O)C12CC3CC(CC(C3)C1)C2 [Compound No. 2, N-[4-{-2-(2-Methoxyphenoxy)ethyl}aminobutyl]-1-adamantamide]",ED50 (dose necessary for 50% inhibition of the acid secretion) (gastric acid secretion): 3.6 mg/kg i.d.
,,CNC(=O)c1ccccc1OCCNCCCCNC(=O)c1ccccc1 [Compound No. 18],Percent Inhibition (vomiting) ([1]; 1.0 mg/kg iv): 62%; Charcoal Transit Time Compared to Control (intestinal transit; 0.3 mg/kg s.c.): +16%; Charcoal Transit Time Compared to Control (intestinal transit; 1.0 mg/kg s.c.): +20%; ED50 (dose necessary for 50% inhibition of the acid secretion) (gastric acid secretion): 3.2 mg/kg i.d.; Effect on Gastric Emptying Time Compared to Control (gastric emptying; 0.3 mg/kg s.c.): +8%; Effect on Gastric Emptying Time Compared to Control (gastric emptying; 1.0 mg/kg s.c.): +18%; Effect on Gastric Emptying Time Compared to Control (gastric emptying; 3.0 mg/kg s.c.): +26%
,,"CCN(CC)CCNC(=O)c1cc(Cl)c(N)cc1OC [Metoclopramide, reference compound]",Percent Inhibition (vomiting) ([1]; 1.0 mg/kg iv): 15%
,,"COc1ccc2[nH]c([S+]([O-])Cc3ncc(C)c(OC)c3C)nc2c1 (stereo not drawn) [Omeprazole, reference compound]",ED50 (dose necessary for 50% inhibition of the acid secretion) (gastric acid secretion): 4.6 mg/kg i.d.

melting point [°C],pKi (5-HT1A receptor),Structure (SMILES),also measured
,,"Cc1nccn1CC1CCc2c(c3ccccc3n2C)C1=O (stereo not drawn) [Ondansetron, reference compound]",Percent Inhibition (vomiting) ([1]; 0.5 mg/kg iv): 62%
,,"CN1CCN(CC(=O)N2c3ccccc3C(=O)Nc3cccnc32)CC1 [Pirenzepine, reference compound]",ED50 (dose necessary for 50% inhibition of the acid secretion) (gastric acid secretion): 14 mg/kg i.d.
,,"CNC(=C[N+](=O)[O-])NCCSCc1ccc(CN(C)C)o1 [Ranitidine, reference compound]",ED50 (dose necessary for 50% inhibition of the acid secretion) (gastric acid secretion): 22 mg/kg i.d.
,8.85,COc1ccccc1OCCNCCCCNC(=O)c1ccccn1 [compound 3],
,9.15,CSc1ccccc1OCCNCCCCNC(=O)c1ccccc1 [compound 11],
,8.80,COc1cccc(C(=O)NCCCCNCCOc2ccccc2OC)c1 [compound 14],
,9.64,"O=C(NCCCCNCCOc1ccccc1O)c1ccccc1 [compound 20, N[4-{2-(2-hydroxyphenoxy)ethyl}aminobutyl]benzamide]",ED50 (dose necessary for 50% inhibition of the acid secretion) (gastric acid secretion): 3.1 mg/kg i.d.
,9.48,COc1ccccc1OCCNCCCCNC(=O)c1ccc(F)cc1 [compound 23],
,9.36,COc1ccccc1OCCNCCCCNC(=O)c1cccc(I)c1 [compound 30],
,9.48,COc1ccccc1OCCNCCCCNC(=O)CC(C)(C)C [compound 33],
,10.06,"COc1ccccc1OCCNCCCCNC(=O)C1CCCCC1 [compound 34, N[4-{2-(2-methoxyphenoxy)ethyl}aminobutyl]cyclohexylamide]",
,9.85,COc1ccccc1OCCNCCCCNC(=O)C1(C)CCCCC1 [compound 45],
,10.03,"COc1ccccc1OCCNCCCCNC(=O)C1CCCCCC1 [compound 46, N[4-{2-(2-methoxyphenoxy)ethyl}aminobutyl]cycloheptylamide]",
,10.15,"COc1ccccc1OCCNCCCCNC(=O)C1CC2CCC1C2 (stereo not drawn) [compound 50, N[4-{2-(2-methoxyphenoxy)ethyl}aminobutyl]2-bicyclo[2,2,1]heptylamide]",
,9.19,COc1ccccc1OCCNCCCCNC(=O)CC1CCCC1 [compound 59],
,9.11,CCOc1ccccc1OCCNCCCCNC(=O)C(C)(C)C [compound 64],
